Assay [1] has as its system primary human fibroblasts. The class given is cell-based. To be noted: confluent primary human fibroblasts treated prior to rAAV infection; FACS at 96 hours post-infection. On the procedure: Initial studies were performed in confluent primary human fibroblasts since dose titrations and toxicity could be quickly assessed. Selected agents were used to treat fibroblast monolayers prior to rAAV infection. rAAV transduction was assessed at 96 hours post-infection by FACS analysis, and the percentage of dead cells was simultaneously assessed by incorporation of propidium iodide.
These tripeptides are structurally related to chloroquine but have different lipid solubility and specificity for cysteine proteases (Seglen, 1983). These molecules decrease endosomal degradation of molecules by a mechanism different than altering pH.

Assay [2] concerns polarized human airway epithelial cells. It counts as cell-based. Particulars: for rAAV transduction from the basolateral surface: both ubiquitin ligase inhibitors combined, 2 mM pretreatment, 0.2 mM during infection; for rAAV transduction from the apical surface: data not shown. As for the experimental part:
Primary culture of human bronchial epithelia and reagents utilized. Primary human airway epithelial cells were collected by enzymatic digestion of bronchial samples from lung transplants, as previously described (Kondo et al., 1991; Zabner et al., 1996). Isolated primary airway cells were seeded at a density of 5×10^5 cells/cm^2 onto collagen-coated Millicell-HA culture inserts (Millipore Corp., Bedford, Mass.). Primary cultures were grown at the air-liquid interface for more than 2 weeks, by which time differentiation into a mucociliary epithelium occurs. The culture medium, used to feed only the basolateral side of the cells, contained 49% DMEM, 49% Ham's F12 and 2% Ultraser G (BioSepra, Cedex, France). Dimethyl Sulphoxide (DMSO), camptothecin (Camp), etoposide (Etop), aphidicolin (Aphi), hydroxyurea (HU) and genistein (Geni) were purchased from Sigma (St. Louis, Mo.). Tripeptidyl aldehyde proteasome inhibitors N-Acetyl-L-Leucyl-L-Leucyl-Norleucine (LLnL) and benzyloxycarbonyl-L-leucyl-L-leucyl-L-leucinal (Z-LLL) were purchased from Calbiochem-Novabiochem Corporation (La Jolla, Calif.). Ubiquitin ligase (E3) inhibitors were obtained from Bachem Bioscience Inc. (King of Prussia, Pa.). Anti-AAV capsid monoclonal antibody (Anti-VP1, 2 and 3) was purchased from American Research Products (Belmont, Mass.) and anti-ubiquitin antibody was purchased from Santa Cruz Biotechnology Inc. (Santa Cruz, Calif.).
Transduction of polarized airway epithelial cells and primary human fibroblasts. rAAV infection of fully differentiated bronchial cells was performed as described in Duan et al. (1998). For infections from the apical surface of the airway cells, 5 μl rAAV was mixed with 50 μl of culture media and applied directly onto the apical compartment of Millicell inserts (MOI=10,000 particles/cell). During apical infection, the basolateral side of the Millicell was continuously bathed in culture media. Gene transfer to the basal side was performed by inverting Millicell inserts and applying viral vector to the bottom of the supporting filter membrane in a 50 μl volume for 2 hours. Subsequently, Millicell inserts were returned to the upright position, in the continued presence of the original viral inoculum plus an additional 450 μl of media. For both apical and basolateral infections, rAAV containing media was removed after 24 hours and replaced with either fresh culture media (for the basal side) or exposed to air (for the apical side). To test the effect of different agents on the efficiency of AAV transduction in polarized airway cells, 1 μl of each solution was mixed with AAV prior to infection of airway epithelia. Agents were usually presented during the 24 hours AAV infection period unless indicated otherwise. Most of the agents were dissolved in DMSO except for hydroxyurea (dissolved in phosphate buffered saline), H-Leu-Ala-OH (dissolved in 0.9% glacial acetic acid) and H-His-Ala-OH (dissolved in 50% methanol). The working concentrations of the agents were as follows: 0.1 μM camptothecin, 10 μM etoposide, 5 μg/ml aphidicolin, 40 mM hydroxyurea, 50 μM genistein, 40 μM LLnL and 4 μM Z-LLL. When the ubiquitin ligase (E3) inhibitors (H-Leu-Ala-OH and H-His-Ala-OH) were used, airway cells were pretreated with a combination of both inhibitors at a final concentration of 2 mM for 60 minutes prior to infection, followed by the continued presence of inhibitor (0.2 mM) during the entire 24 hours infection period from the basolateral surface. Studies involving EGTA treatment were performed by transiently treating the apical membrane of polarized airway epithelia with 3 mM EGTA in water for 10 minutes (Duan et al., 1998). Following hypotonic EGTA treatment, cultures were washed twice with culture medium and infected with rAAV in the presence or absence of 40 μM LLnL. Human primary fibroblast cells (P4) were maintained in 10% fetal bovine serum (FBS), 1% penicillin and streptomycin, and 89% DMEM. […]

Another assay has as its system HeLa cells. Kind of assay: AAV2 FLAG-Luc transduction of HeLa cells (luciferase screen). The class given is cell-based, human. Particulars: for increase in transduction efficiency: at the doses tested, MOI 100, 2 hours infection, harvest 48 hours; for dose dependence of transduction: dose ranges tested; for order of potency among anthracyclines: 0.6, 3 and 6 μg/mL. From the text:
A. To screen for agents that enhance rAAV transduction, any number of cells can be used. A range of concentrations of the agent to be tested can be determined based on, for instance desirable profiles of the agent, desirable toxicity profiles of the agent and/or concentration of the agents employed in vivo. The usefulness of the cell type chosen for the screen can be confirmed by testing compounds, e.g., proteasome inhibitors such as LLnL and ZLL which are known to increase rAAV transduction. For example, a AAV2 FLAG-Luc vector was employed to transduce HeLa, ferret fibroblasts, IB3 and Huh (liver) cells in the presence or absence of the proteasome inhibitor MG132. MG132 was confirmed to enhance AAV transduction in all cell types tested: HeLa cell transduction was enhanced about 500-fold at 80 μM, and 200-fold at 40 μM, MG132; ferret fibroblast cell transduction was enhanced about 200-fold at 20 μM, and 17-fold at 4 μM, MG132; IB3-1 cell transduction was enhanced about 30 to 70-fold at 20 to 80 μM MG132; and Huh-7 cell transduction was enhanced about 15-fold at 20 to 80 μM MG132. There was no difference in rAAV transduction efficiency in HeLa cells when either DMSO or ETOH was used as a vehicle for MG132. B. HeLa cells were selected to screen for additional agents that enhance rAAV transduction, although any cell strain or line; or primary cells, may be employed. […] The range of concentrations of the agents to be tested were selected based on solubility profiles, toxicity profiles and/or concentrations previously employed in vivo.
HeLa cells were infected for 2 hours with an MOI of 100 rAAV in the presence of agents, e.g., ritonavir (Norvir) (1, 10 and 100 μM), cyclosporin A (2.5, 25 and 250 μg/ml), epoxomicin (1, 10 and 50 μM), alcacinomycin A (5, 50 or 500 μM), chymostatin (1, 10 and 100 μM), bestatin (1, 10 and 100 μM), doxorubicin (adriamycin) (0.1, 1 and 10 μM), camptothecin (camptosar) (1, 10 and 100 μM), eicosapentanoic acid (1, 10 and 100 μM), tannic acid (2, 20, 200 and 2000 μM), simvastatin, prodrug (2, 20 and 200 μM), cisplatin (0.2, 2 and 20 μg/mL), and chloroquine (4, 40 and 400 μM). Forty-eight hours after infection, cells were harvested for analysis. rAAV transduction was measured by removing the media from the cell cultures, adding 100 μL reporter lysis buffer (RLB) and freezing. The supernatant was thawed and transferred to microfuge tubes, freeze thawed an additional 2 times, clarified by centrifugation for 10 minutes and then analyzed for reporter gene expression on the lumometer. Protein was determined by Bradford analysis and results were expressed as relative light units per mg protein (RLU/mg).
Based on results with doxorubicin, a small number of FDA approved anthracyclines were tested for their relative in vitro and in vivo activities on AAV transduction. HeLa cells were infected with 100 ppc AAV2FLAG-Luc for 2 hours in the presence of different anthracyclines, e.g., doxorubicin, daunarubicin (Cerubidine), epirubicin (Ellence™), and idarubicin (Idamycin®), and cells harvested 48 hours later. The anthracyclines were pharmaceutical grade, and prepared according to the manufacturer's instructions. Prior to use, the agents were diluted in sterile water to an equal mass, e.g., 0.6 μg/mL, 3 μg/mL and 6 μg/mL. For example, 3 μg/mL idamycin increased luciferase expression by over 5000-fold while doxorubin increased luciferase expression by 58-fold. Generally, the potency was as follows: idarubicin>daunarubicin>epirubicin>doxorubicin.

Counter-ions that a name gives are not always drawn. Peptide text beside a SMILES is read from it. Where only a bound is given, the exact number is not on record here.

Consider 18 compounds from patent US20080206198A1, “Compounds and methods for pharmico-gene therapy of epithelial sodium channel associated disorders” (priority 2003, published 2008).

For the compound `C[C@H]1CCC/C=C/[C@@H]2C[C@H](O)C[C@H]2[C@H](O)/C=C/C(=O)O1` [BFA, brefeldin A], the rAAV transduction entry in assay [1] was “significant enhancement of rAAV transduction”.

For the compound `C[C@H](NC(=O)[C@@H](N)Cc1cnc[nH]1)C(=O)O` [H-His-Ala-OH] (H-His-Ala-OH), the “rAAV transduction from the basolateral surface” value in assay [2] is “enhanced rAAV transduction from the basolateral surface”.

`CC(C)C[C@H](N)C(=O)N[C@@H](C)C(=O)O` [H-Leu-Ala-OH] (H-Leu-Ala-OH): the “rAAV transduction from the basolateral surface” value in assay [2] is on record as “enhanced rAAV transduction from the basolateral surface”.

Take `Cl.N` [NH4Cl]: the rAAV transduction result in assay [1] is listed as “significantly inhibited rAAV transduction”.

On to `CC[C@@]1(O)C(=O)OCc2c1cc1n(c2=O)Cc2cc3ccccc3nc2-1` [camptothecin], for which the “rAAV transduction from the apical surface” value in assay [2] is “none of these agents facilitated rAAV transduction from the apical surface”. Further, in the assay with HeLa cells, the “increase in transduction efficiency” value is 15 fold and the “dose dependence of transduction” value is reported as “dose-dependent increase in transduction”.

Turning to `CCN(CC)CCCC(C)Nc1ccnc2cc(Cl)ccc12` (stereo not drawn) [chloroquine], the rAAV transduction entry in assay [1] is on record as “significantly inhibited rAAV transduction”.

Consider `N.N.[Cl][Pt][Cl]` [cisplatin], for which, in the assay with HeLa cells, the “increase in transduction efficiency” value turned out to be 16 fold.

On to `C=C1[C@@H](C)[C@H]2[C@H](Cc3ccccc3)NC(=O)[C@]23OC(=O)/C=C/[C@H](O)CCC[C@@H](C)C/C=C/[C@H]3[C@@H]1O` [cytochalasin B], for which the rAAV transduction entry in assay [1] is reported as “significant decrease in rAAV transduction”.

Turning to `COc1cccc2c1C(=O)c1c(O)c3c(c(O)c1C2=O)C[C@@](O)(C(C)=O)C[C@@H]3O[C@H]1C[C@H](N)[C@H](O)[C@H](C)O1` [daunarubicin], in the assay with HeLa cells, the “order of potency among anthracyclines” value is “idarubicin>daunarubicin>epirubicin>doxorubicin”.

`COc1cccc2c1C(=O)c1c(O)c3c(c(O)c1C2=O)C[C@@](O)(C(=O)CO)C[C@@H]3O[C@H]1C[C@H](N)[C@@H](O)[C@H](C)O1` [epirubicin]: the “order of potency among anthracyclines” value in the assay on HeLa cells is listed as “idarubicin>daunarubicin>epirubicin>doxorubicin”.

For `CC[C@H](C)[C@H](NC(=O)[C@H]([C@@H](C)CC)N(C)C(C)=O)C(=O)N[C@H](C(=O)N[C@@H](CC(C)C)C(=O)[C@@]1(C)CO1)[C@@H](C)O` [epoxomicin], in the assay on HeLa cells, the “increase in transduction efficiency” value is listed as at most 120 fold and the “dose dependence of transduction” value is on record as “dose-dependent increase in transduction”.

Turning to `COc1cc([C@@H]2c3cc4c(cc3[C@@H](O[C@@H]3O[C@@H]5CO[C@@H](C)O[C@H]5[C@H](O)[C@H]3O)[C@H]3COC(=O)[C@H]23)OCO4)cc(OC)c1O` [etoposide], the “rAAV transduction from the apical surface” value in assay [2] is recorded as “none of these agents facilitated rAAV transduction from the apical surface”.

As for `O=c1c(-c2ccc(O)cc2)coc2cc(O)cc(O)c12` [genistein], the “rAAV transduction from the apical surface” value in assay [2] is recorded as “none of these agents facilitated rAAV transduction from the apical surface”.

As to `NC(=O)NO` [hydroxyurea], the “rAAV transduction from the apical surface” value in assay [2] is “none of these agents facilitated rAAV transduction from the apical surface”.

As for `CC[C@H](C)C(=O)O[C@H]1C[C@@H](C)C=C2C=C[C@H](C)[C@H](CC[C@@H]3C[C@@H](O)CC(=O)O3)[C@H]21` [lovastatin], in the assay with HeLa cells, the “result in cell line screening” value was “negative results”.

Regarding `CCC(C)(C)C(=O)O[C@H]1C[C@@H](C)C=C2C=C[C@H](C)[C@H](CC[C@@H]3C[C@@H](O)CC(=O)O3)[C@H]21` [simvastatin], the “increase in transduction efficiency” value in the assay on HeLa cells was 4 fold.

With `O=C(OC[C@H]1O[C@@H](OC(=O)c2cc(O)c(O)c(OC(=O)c3cc(O)c(O)c(O)c3)c2)[C@H](OC(=O)c2cc(O)c(O)c(OC(=O)c3cc(O)c(O)c(O)c3)c2)[C@@H](OC(=O)c2cc(O)c(O)c(OC(=O)c3cc(O)c(O)c(O)c3)c2)[C@@H]1OC(=O)c1cc(O)c(O)c(OC(=O)c2cc(O)c(O)c(O)c2)c1)c1cc(O)c(O)c(OC(=O)c2cc(O)c(O)c(O)c2)c1` [tannic acid], the “increase in transduction efficiency” value in the assay on HeLa cells amounted to 17 fold.

As for `CC[C@]1(O)C[C@@H]2CN(CCc3c([nH]c4ccccc34)[C@@](C(=O)OC)(c3cc4c(cc3OC)N(C)[C@H]3[C@@](O)(C(=O)OC)[C@H](OC(C)=O)[C@]5(CC)C=CCN6CC[C@]43[C@@H]65)C2)C1` [vinblastine, vinblastine sulfate], in assay [1], the rAAV transduction entry was “little effect on rAAV transduction”.
